Data reported in ChEMBL document CHEMBL3526061, “Glucuronidation of edaravone by human liver and kidney microsomes: biphasic kinetics and identification of UGT1A9 as the major UDP-glucuronosyltransferase isoform” (Drug Metab Dispos, 2012).

Tests used:
Type in all cases: ADME
Liver microsome = experiment: Drug metabolism in human liver microsomes assessed as drug glucuronidation in presence of […] naloxone by LC-MS/MS method
[1] = Drug metabolism in human kidney microsomes assessed as drug glucuronidation in presence of 5 to 35 uM androsterone by LC-MS/MS method
[2] = molecular target: T1, UDP-glucuronosyltransferase 2B7 (Homo sapiens, UniProt P16662); experiment: Activity of human recombinant UGT2B7 expressed in insect cells assessed as enzyme mediated glucuronidation in presence of […] naloxone by LC-MS/MS method
T1 sequence (P16662 whole entry): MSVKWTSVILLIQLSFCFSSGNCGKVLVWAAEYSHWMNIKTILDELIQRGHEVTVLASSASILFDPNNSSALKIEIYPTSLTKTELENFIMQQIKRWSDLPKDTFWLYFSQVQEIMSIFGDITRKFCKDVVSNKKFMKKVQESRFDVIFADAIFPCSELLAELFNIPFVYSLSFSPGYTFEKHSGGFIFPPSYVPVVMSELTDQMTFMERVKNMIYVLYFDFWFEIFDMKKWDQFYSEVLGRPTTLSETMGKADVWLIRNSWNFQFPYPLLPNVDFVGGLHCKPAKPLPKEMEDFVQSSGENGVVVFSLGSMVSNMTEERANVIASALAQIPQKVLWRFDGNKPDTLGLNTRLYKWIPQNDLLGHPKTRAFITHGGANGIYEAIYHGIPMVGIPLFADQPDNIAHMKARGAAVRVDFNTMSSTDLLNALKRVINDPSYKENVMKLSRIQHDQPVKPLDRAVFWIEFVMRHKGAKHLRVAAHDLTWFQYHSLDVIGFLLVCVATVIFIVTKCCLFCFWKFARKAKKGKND

[3] = molecular target: T2, UDP-glucuronosyltransferase 1A9 (Homo sapiens, UniProt O60656); experiment: Activity of human recombinant UGT1A9 expressed in insect cells assessed as enzyme mediated glucuronidation at 12.5 uM by LC-MS/MS method
T2 sequence (O60656 whole entry): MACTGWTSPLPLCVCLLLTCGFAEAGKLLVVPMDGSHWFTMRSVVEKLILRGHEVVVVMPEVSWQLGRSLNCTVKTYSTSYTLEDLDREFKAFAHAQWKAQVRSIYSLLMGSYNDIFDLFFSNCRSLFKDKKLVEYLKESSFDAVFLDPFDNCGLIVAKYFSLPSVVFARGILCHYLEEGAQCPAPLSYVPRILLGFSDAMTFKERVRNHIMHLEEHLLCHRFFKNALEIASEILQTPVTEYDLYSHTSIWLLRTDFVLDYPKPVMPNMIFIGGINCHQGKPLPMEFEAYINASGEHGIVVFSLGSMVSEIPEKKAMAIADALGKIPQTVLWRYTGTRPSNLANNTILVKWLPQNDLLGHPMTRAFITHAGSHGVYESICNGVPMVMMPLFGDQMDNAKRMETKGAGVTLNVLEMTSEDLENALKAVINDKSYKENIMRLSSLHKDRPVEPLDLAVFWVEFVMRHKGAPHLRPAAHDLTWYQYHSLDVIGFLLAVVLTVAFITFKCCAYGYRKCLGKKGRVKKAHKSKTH

[4] = molecular target: T3, UDP-glucuronosyltransferase 1A1 (Homo sapiens, UniProt P22309); experiment: Activity of human recombinant UGT1A1 expressed in insect cells assessed as enzyme mediated glucuronidation at 500 uM by LC-MS/MS method
T3 sequence (P22309 whole entry): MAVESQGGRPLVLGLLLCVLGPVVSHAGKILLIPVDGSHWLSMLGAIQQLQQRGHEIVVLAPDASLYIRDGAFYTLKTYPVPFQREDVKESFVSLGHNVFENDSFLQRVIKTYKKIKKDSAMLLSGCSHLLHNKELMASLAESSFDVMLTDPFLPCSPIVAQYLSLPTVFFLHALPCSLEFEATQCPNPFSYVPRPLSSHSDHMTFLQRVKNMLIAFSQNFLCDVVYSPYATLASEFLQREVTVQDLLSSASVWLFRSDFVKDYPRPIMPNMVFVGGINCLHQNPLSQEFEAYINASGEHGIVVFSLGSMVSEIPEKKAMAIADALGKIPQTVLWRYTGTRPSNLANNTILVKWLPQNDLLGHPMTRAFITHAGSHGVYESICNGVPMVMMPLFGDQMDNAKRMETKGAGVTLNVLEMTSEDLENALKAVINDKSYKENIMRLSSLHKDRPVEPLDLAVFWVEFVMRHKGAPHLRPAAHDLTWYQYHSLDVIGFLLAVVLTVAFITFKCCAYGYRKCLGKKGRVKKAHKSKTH

[5] = molecular target: T4, UDP-glucuronosyltransferase 1A3 (Homo sapiens, UniProt P35503); experiment: Activity of human recombinant UGT1A3 expressed in insect cells assessed as enzyme mediated glucuronidation at 500 uM by LC-MS/MS method
T4 sequence (P35503 whole entry): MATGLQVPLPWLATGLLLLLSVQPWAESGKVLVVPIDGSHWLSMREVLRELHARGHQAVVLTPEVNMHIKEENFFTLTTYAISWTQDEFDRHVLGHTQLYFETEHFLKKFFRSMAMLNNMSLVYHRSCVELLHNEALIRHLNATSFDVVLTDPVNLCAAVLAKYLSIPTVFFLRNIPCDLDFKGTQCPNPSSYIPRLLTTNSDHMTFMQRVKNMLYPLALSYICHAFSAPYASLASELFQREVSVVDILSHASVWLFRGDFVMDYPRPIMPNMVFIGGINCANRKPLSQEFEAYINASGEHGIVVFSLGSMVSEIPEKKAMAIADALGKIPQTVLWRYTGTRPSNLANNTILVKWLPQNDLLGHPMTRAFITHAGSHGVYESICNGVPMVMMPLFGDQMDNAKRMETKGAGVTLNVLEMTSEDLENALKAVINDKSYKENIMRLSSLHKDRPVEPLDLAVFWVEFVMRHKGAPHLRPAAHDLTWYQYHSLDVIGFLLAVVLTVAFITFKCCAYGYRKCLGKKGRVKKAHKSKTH

[6] = molecular target: T2, UDP-glucuronosyltransferase 1A9; experiment: Activity of human recombinant UGT1A9 expressed in insect cells assessed as enzyme mediated glucuronidation at 500 uM by LC-MS/MS method

Drug metabolism (Liver microsome): metabolite_detected
Drug metabolism [1]: metabolite_detected
Drug metabolism [2]: metabolite_not_detected
Drug metabolism [3]: metabolite_detected
Drug metabolism [4]: metabolite_detected
Drug metabolism [5]: metabolite_detected
Drug metabolism [6]: metabolite_detected
Compound: CC1=NN(c2ccccc2)C(=O)C1 [EDARAVONE]
